These results are taken from patent US12306176B2, “Microfluidic bi-directional migration assay” (Ohio State Innovation Foundation, priority 2017, dated 2025).

The test system of this test is MDA-MB-231 cells. Kind of test: Microfluidic bi-directional migration (MBDM) assay, mean migration speed and persistence. It is filed as cell-based, human. The source says:
To quantify the effects of iEF treatment on directed cell migration speed and persistence, a custom microfluidic bi-directional microtrack (MBDM) assay was developed that enables real-time monitoring with time-lapse microscopy of cell motility.
In this study, the EF sensing mechanisms of breast cancer cells in response to asymmetric iEFs (<100 μV/cm) was investigated. Using a MBDM assay, changes in the speed and persistence of spontaneously migrating MDA-MB-231 breast cancer cells were observed. This cell type was selected for these studies because it is a putative metastatic breast cancer cell line that is also responsive to gradients of a chemoattractant such as EGF (Wang S J, et al. (2004) Exp Cell Res 300 (1):180-189; Wu A, et al. (2013) Proc Natl Acad Sci U S A 110(40):16103-16108). […] This configuration enables direct comparison of cell movement in response to iEFs applied primarily with the direction of cell migration (“parallel”) or against the direction of cell migration (“anti-parallel”) within the same microfluidic device. Here, the field direction is defined as the direction that has the higher peak magnitude, as well as higher time-average field strength.
To calculate persistence, the following protocol was followed for each cell tracked in a microtrack of the MBDM assay. A cell starts at position Pt at time t. After a single time increment, dt, the cell moves to a new position, Pt+dt. The distance traveled during this time is the absolute difference in the two positions denoted as Li: Li=|Pt+dt−Pt|
The total distance traveled is then the sum of all distances traveled during N time increments denoted as Lt. Additionally, the total time of travel is the number of time increments multiplied by the size of the time increments denoted as Tt.
The displacement is simply the difference between the final and initial position: Ld=|PFinal−PInitial|
The MBDM assay was designed to have three ports separated by 700 μm long arrays of parallel microtracks (FIG. 1D). The dimension of each port was 50 mm×15 mm. Cells were seeded in the center port and the top and bottom ports were designated as cell collection port and/or chemokine source reservoir port depending on the experimental condition. Microchannels were designed to have a square cross-section of 20 μm×20 μm. The cross-section dimensions were on the same order as the size of single cells and mimic the dimensions of pre-existing microtracks available to cells in-vivo (Kraning-Rush C M, et al. (2013) lntegr Biol (Camb). 5 (3):606-616). Moreover, these migratory tracks are representative of physiologically relevant matrix metalloproteinase independent cancer-cell migration mode during metastasis (Friedl P & Alexander S (2011) Cell 147 (5):992-1009; Wolf K, et al. (2009) Semin Cell Dev Biol. 20 (8):931-941; Friedl P & Wolf K (2003) Nat Rev Cancer. 3 (5):362; Wolf K, et al. (2007) Nat Cell Biol. 9 (8):893; Wolf K, et al. (2003) J Cell Biol. 160 (2):267-277). The bi-directional design of this assay allows cells to migrate in either direction from the seeding port and provides a better understanding and quantification of the directional bias of external cues such as chemokine gradients and the directional effects of applied iEFs. The large ports for cell seeding ensure uniform seeding density, excellent cell viability, and repeatability.
Cells were washed in culture plates with 1×PBS solution, treated with 0.05% trypsin-EDTA solution (Sigma-Aldrich), and then counted using a hemocytometer. Cells (2×10^5) suspended in migration media were seeded in the middle port (seeding port) with an extremely small flow from the collection ports to the seeding port, which equilibrated in less than 15 minutes. The cells inside the devices were then incubated for 12 hours in migration media following which the media was aspirated and replaced with new media based on the experimental conditions. […]

[1] abbreviates: MK2206 2.5 μM alone, no EGF, no iEF.
Where [2] appears, read: MK2206 2.5 μM alone, under EGF gradient (25 ng/mL).
Setting [3] is: MK2206 2.5 μM plus anti-parallel iEFs, under EGF gradient.
Setting [4] is: MK2206 2.5 μM plus parallel iEFs, under EGF gradient.

Turning to `NC1(c2ccc(-c3nc4ccn5c(=O)[nH]nc5c4cc3-c3ccccc3)cc2)CCC1` [MK2206], under setting [1], the “increase of mean migration speed compared to untreated controls” value worked out at 9% and the “reduction of persistence compared to untreated controls” value was 31%. The “reduction of persistence below EGF-gradient conditions” value (MK2206 2.5 μM alone, under EGF gradient) is on record as 9%. Under setting [2], the mean migration speed was 0.36 μm/min and the “reduction of mean migration speed compared to EGF-gradient condition” value was found to be 16%. Further, the “persistence compared to MK2206 treatment alone” value (MK2206 2.5 μM co-applied with anti-parallel iEFs, no EGF) is recorded as “significantly increased”. Where the note is “MK2206 2.5 μM co-applied with iEFs, parallel or anti-parallel, no EGF”, the “average migration speed compared to untreated controls” value is “comparable modest decrease”. Also, under setting [3], the mean migration speed was 0.31 μm/min, the “reduction of mean migration speed below EGF controls” value is reported as 28% and the “reduction of persistence from the EGF control” value was 26%. Moreover, under setting [4], the mean migration speed is recorded as 0.26 μm/min, the “reduction of mean migration speed below EGF controls” value was found to be 40% and the “reduction of persistence from the EGF control” value is listed as 19%. In addition, the “directional response of migration speed to iEF” value (MK2206 treatment, no exogenous EGF gradient) was “nullified”.
